{
  "source": "patent US8097267B2",
  "about": "“Moisture resistant container systems for rapidly bioavailable dosage forms” (APR Applied Pharma Research s.a., priority 2006, dated 2012)",
  "origin": "cited, not measured here",
  "conditions": "acidic environment",
  "data": [
    {"substance": "[(2,6-dichloro-anilino)-2-phenyl]-2-acetic acid [diclofenac potassium]", "values": [
      {"measurement": "precipitation", "result": "tendency to precipitate in an acidic environment"}
    ]}
  ]
}
